Legend:
[1] = target: T1, Alpha-1D adrenergic receptor (Rattus norvegicus, UniProt P23944); assay: Binding affinity against Alpha-1D adrenergic receptor, from rat clones.
T1 sequence (P23944 whole entry): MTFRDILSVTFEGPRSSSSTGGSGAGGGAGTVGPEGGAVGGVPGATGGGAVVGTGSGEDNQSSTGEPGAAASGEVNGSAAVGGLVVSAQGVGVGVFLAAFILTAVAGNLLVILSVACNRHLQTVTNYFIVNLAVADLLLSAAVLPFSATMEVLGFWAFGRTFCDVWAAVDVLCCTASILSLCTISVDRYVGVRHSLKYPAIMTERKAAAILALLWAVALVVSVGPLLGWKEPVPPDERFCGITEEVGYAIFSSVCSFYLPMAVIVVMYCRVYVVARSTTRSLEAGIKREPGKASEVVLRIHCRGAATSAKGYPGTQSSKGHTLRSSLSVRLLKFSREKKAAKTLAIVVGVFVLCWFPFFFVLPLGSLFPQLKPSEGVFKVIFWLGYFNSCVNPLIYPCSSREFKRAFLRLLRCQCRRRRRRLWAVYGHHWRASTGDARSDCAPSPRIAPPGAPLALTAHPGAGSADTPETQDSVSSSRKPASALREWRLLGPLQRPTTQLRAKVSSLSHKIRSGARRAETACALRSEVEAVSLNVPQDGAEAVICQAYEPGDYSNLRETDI

[2] = target: T2, Alpha-1D adrenergic receptor (Homo sapiens, UniProt P25100); assay: Binding affinity against Alpha-1D adrenergic receptor, from human clones.
T2 sequence (P25100 whole entry): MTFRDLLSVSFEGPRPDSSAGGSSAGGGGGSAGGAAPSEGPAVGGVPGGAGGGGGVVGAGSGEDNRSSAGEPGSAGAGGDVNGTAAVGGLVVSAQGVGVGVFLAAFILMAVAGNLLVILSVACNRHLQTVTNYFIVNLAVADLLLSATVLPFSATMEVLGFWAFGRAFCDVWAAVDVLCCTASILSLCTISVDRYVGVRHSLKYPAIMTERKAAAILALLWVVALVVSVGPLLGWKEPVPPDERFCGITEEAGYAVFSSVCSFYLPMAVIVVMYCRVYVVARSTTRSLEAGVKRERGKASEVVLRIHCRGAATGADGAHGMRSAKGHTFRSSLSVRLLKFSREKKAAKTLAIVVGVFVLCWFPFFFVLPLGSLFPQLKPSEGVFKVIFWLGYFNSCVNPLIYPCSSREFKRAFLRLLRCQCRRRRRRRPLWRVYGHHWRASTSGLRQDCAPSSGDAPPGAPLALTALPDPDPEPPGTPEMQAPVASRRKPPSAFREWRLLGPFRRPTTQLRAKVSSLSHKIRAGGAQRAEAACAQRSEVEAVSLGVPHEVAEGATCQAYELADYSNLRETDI

[3] = target: T3, Alpha-2A adrenergic receptor (Homo sapiens, UniProt P08913); assay: Binding affinity against Alpha-2A adrenergic receptor, from human clones.
T3 sequence (P08913 whole entry): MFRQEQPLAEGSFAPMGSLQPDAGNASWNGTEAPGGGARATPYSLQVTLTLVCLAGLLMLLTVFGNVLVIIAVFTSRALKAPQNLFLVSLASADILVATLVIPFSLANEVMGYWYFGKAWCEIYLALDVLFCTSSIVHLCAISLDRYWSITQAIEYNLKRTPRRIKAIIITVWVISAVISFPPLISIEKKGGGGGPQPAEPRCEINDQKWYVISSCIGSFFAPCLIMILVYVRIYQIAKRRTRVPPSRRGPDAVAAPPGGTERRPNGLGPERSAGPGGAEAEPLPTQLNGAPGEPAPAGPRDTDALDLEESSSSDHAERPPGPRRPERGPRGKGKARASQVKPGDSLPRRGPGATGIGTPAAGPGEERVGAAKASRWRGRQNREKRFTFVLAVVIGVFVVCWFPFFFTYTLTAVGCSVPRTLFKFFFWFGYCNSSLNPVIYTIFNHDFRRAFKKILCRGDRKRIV

[4] = target: T4, Alpha-1A adrenergic receptor (Bos taurus, UniProt P18130); assay: Binding affinity against Alpha-1A adrenergic receptor from bovine clone
T4 sequence (P18130 whole entry): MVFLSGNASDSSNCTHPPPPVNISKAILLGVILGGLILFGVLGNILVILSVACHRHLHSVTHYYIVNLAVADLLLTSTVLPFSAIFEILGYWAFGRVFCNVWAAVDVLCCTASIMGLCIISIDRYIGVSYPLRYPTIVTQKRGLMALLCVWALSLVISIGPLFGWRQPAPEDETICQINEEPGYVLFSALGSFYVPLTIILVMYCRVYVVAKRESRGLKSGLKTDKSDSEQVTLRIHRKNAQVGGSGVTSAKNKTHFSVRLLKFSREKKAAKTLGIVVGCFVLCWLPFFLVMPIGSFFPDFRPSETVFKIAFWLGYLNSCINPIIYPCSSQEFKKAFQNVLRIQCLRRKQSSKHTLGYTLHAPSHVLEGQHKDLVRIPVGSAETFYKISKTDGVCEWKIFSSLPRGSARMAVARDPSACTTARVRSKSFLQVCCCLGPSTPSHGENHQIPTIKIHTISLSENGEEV

[5] = target: T5, Alpha-1B adrenergic receptor (Homo sapiens, UniProt P35368); assay: Binding affinity against Alpha-1B adrenergic receptor from human clone
T5 sequence (P35368 whole entry): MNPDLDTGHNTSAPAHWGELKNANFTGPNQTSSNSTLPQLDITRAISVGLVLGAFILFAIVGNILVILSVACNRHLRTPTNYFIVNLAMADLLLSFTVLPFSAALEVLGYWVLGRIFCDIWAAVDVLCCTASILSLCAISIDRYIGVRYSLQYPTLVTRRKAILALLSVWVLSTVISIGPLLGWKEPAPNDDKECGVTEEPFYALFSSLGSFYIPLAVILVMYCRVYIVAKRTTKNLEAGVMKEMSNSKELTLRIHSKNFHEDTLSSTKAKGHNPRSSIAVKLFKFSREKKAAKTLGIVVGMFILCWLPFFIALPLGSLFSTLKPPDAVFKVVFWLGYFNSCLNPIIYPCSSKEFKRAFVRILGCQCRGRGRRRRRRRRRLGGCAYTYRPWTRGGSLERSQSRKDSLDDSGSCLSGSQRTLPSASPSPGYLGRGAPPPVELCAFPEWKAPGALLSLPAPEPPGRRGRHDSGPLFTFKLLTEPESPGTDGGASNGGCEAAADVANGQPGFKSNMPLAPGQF

[6] = target: T6, Alpha-2A adrenergic receptor (Bos taurus, UniProt Q28838); assay: Compound was evaluated for inhibition of binding of [3H]MK-91 to Alpha-2 adrenergic receptor in bovine pineal
T6 sequence (Q28838 whole entry): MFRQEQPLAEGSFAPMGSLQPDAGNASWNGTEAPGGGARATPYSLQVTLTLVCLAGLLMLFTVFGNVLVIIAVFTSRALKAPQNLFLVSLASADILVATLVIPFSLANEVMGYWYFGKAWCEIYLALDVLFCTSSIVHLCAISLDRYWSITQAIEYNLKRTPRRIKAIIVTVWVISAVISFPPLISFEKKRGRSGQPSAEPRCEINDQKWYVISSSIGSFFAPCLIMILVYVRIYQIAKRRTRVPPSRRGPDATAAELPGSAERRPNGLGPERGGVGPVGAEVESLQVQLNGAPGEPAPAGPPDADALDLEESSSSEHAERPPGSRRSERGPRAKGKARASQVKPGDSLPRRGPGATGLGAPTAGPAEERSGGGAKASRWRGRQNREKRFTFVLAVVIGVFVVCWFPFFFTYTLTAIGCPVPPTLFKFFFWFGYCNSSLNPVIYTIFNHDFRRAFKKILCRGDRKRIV

[7] = target: T7, Alpha-2A adrenergic receptor (Sus scrofa, UniProt P18871)
T7 sequence (P18871 whole entry): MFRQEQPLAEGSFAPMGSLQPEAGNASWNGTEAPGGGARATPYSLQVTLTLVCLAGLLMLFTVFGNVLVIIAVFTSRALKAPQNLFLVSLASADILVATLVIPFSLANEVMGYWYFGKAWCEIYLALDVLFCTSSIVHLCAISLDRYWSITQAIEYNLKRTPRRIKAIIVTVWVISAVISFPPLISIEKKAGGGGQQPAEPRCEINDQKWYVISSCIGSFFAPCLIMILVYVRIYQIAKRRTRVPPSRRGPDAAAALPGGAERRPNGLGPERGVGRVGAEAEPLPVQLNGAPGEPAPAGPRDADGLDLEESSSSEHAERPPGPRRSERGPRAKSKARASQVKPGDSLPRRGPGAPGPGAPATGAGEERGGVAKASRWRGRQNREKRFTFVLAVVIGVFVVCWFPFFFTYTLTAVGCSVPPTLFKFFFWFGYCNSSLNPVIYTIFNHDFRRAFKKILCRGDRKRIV

[8] = target: T8, Alpha-2B adrenergic receptor (Homo sapiens, UniProt P18089); assay: Binding affinity against Alpha-2B adrenergic receptor from human clones.
T8 sequence (P18089 whole entry): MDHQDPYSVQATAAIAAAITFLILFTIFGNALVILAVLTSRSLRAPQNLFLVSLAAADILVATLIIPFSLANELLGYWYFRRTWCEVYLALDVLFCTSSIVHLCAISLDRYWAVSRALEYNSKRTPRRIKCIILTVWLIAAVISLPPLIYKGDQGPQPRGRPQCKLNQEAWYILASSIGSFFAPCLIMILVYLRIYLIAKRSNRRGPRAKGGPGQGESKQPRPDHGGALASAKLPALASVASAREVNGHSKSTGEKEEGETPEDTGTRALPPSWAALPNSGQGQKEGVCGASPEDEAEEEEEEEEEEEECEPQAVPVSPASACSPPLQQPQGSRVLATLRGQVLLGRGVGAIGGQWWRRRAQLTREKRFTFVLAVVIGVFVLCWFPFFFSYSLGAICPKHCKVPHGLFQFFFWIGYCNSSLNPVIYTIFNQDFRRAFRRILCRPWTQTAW

[9] = target: T9, Alpha-2A adrenergic receptor (Rattus norvegicus, UniProt P22909); assay: The compound was tested for binding affinity against alpha-2D adrenergic receptor, from rat clones.
T9 sequence (P22909 whole entry): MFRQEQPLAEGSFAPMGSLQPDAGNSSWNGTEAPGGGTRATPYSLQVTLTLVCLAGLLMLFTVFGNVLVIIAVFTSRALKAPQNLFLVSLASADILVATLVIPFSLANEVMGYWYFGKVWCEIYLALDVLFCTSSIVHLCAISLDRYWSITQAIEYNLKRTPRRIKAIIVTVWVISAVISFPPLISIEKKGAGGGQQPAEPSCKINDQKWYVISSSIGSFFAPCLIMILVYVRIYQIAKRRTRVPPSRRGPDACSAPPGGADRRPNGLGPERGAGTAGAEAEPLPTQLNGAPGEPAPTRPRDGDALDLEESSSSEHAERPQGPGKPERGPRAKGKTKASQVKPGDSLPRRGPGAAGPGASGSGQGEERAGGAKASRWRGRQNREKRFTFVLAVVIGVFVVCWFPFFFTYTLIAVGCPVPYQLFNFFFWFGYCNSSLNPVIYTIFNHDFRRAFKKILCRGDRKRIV

[10] = target: T10, Alpha-2C adrenergic receptor (Homo sapiens, UniProt P18825); assay: Binding affinity against Alpha-2C adrenergic receptor from human clones.
T10 sequence (P18825 whole entry): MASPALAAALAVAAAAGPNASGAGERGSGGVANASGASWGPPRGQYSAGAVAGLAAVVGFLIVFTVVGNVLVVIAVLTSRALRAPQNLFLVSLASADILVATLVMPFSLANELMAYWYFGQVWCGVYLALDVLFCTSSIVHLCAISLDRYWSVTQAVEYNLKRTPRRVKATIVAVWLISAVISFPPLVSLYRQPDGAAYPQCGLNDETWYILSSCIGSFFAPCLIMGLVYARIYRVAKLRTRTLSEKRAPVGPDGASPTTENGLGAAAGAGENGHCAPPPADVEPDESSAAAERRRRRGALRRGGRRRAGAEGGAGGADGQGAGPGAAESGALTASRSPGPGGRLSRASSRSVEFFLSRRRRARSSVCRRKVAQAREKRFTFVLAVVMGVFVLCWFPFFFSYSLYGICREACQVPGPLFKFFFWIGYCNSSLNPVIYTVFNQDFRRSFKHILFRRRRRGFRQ

## COC(=O)[C@H]1[C@H]2C[C@H]3c4[nH]c5ccccc5c4CCN3C[C@H]2CC[C@@H]1O [RAUWOLSCINE]
[1]
  Ki: 35 nM

## COc1cc2nc(N3CCN(C(=O)C4CCCO4)CC3)nc(N)c2cc1OC (stereo unspecified) [TERAZOSIN]
[2]
  Ki: 3.5 nM
[1]
  Ki: 35 nM
[3]
  Ki: 3700 nM
[4]
  Ki: 26 nM

## COc1cc2nc(N(C)CCCNC(=O)C3CCCO3)nc(N)c2cc1OC (stereo unspecified) [ALFUZOSIN]
[2]
  Ki: 3.6 nM
[1]
  Ki: 3.5 nM
[5]
  Ki: 2.8 nM

## COc1cc2nc(N3CCN(C(=O)c4ccco4)CC3)nc(N)c2cc1OC [PRAZOSIN]
[6]
  Ki: 106 nM
[7]
  Ki: 4100 nM

## CC(C)=CCOc1ccc(Cl)c2c1CCN(C)CC2
[8]
  Ki: 142 nM
[3]
  Ki: 114 nM
[9]
  Ki: 313 nM
[10]
  Ki: 64 nM

## COc1cc2c(cc1OC)CN(c1cc(N)c3cc(OC)c(OC)cc3n1)CC2 [ABANOQUIL]
[1]
  Ki: 0.03 nM
[4]
  Ki: 0.03 nM
